Values quoted from earlier work, collected in patent publication EP3645498B1, “PROCESS FOR RECOVERING ACETIC ACID FROM AN AQUEOUS STREAM COMPRISING THE SAME” (Nouryon Chemicals International B.V., priority 2017, dated 2019).
Where two headings read alike, the source gives them in different places.

Solubility in water (result in words) | Solubility in water | SMILES
– | < 5ppm^[2] | CCCCCCCCN(CCCCCCCC)CCCCCCCC [TOA, trioctylamine]
Insoluble^[5] | – | CCCCCCCCP(=O)(CCCCCCCC)CCCCCCCC [TOPO, tri-octylphosphine oxide]
– | 0.0022 mg/L^[8] | CCCCCCCCCCCCCC [n-Tetradecane, n-tetradecane]

More lines, now with the values behind:

SMILES | Solubility in water (result in words) | Solubility in water
CCCCCCCCCCCO [1 -Undecanol, 1-undecanol] | Insoluble^[10] | –
CCCCCCCCCCCCc1ccccc1 [Phenyldodecane, phenyldodecane] | Insoluble^[11] | –
